Measurements: patent US5180840A, “Process for preparing analogs of artemisinin” (SRI International, priority 1991, dated 1993)
Like-named read-outs stand apart in the source and are kept apart here.

Experiments:
[1] = test system: W-2 Indochina P. falciparum clone; experiment: in vitro testing against P. falciparum, W-2 Indochina clone; assay type: cell-based; settings: for IC50: Plasmodium falciparum
Text: (§1) The analog 1 was sent to Walter Reed Army Institute of Research (WRAIR) for in vitro testing against P. falciparum using modifications of the procedures of Desjardins et al, 1979, and Milhous et al, 1985, (Desjardins, R. E., C. J. Canfield, D. E. Haynes, and J. D. Chulay, Antimicrob. Angents Chemother., Vol. 16, 710-718 (1979); Milhous, W. K., N. F. Weatherly, J. H. Bowdre, and R. E. Desjardins, Antimicrob. Agents Chemother. Vol. 27, 525-530, 1985.) to assess the intrinsic activity of compound 1 as an anti-malarial drug relative to simultaneous known controls such as chloroquine, mefloquine; pyrimethamine, sulfadoxine, tetracycline, qinghaosu or quinine. Since some anti-malarials are more static than cidal in action, it is necessary to extend the incubation period to assess the effects of such drugs on parasite growth rates. In order to insure exponential parasite growth and maximum uptake of radioisotope throughout the extended incubation, reduced starting parasitemias (0.2%) and reduced red cell hematocrits (1.0%) are required. As a result, drugs which are actively incorporated into erythrocytes (such as chloroquine or qinghaosu) will have slightly lower 50% inhibitory concentrations than in other assay systems employing higher red cell hematocrits. Except for the contribution from the 10% normal pooled human plasma and added 10^-10 M (0.014 ng/ml) PABA, the culture medium is folate-free. The trace amount of PABA insures exponential growth of the sulfonamide-susceptible parasite clone without antagonizing the activity of antifol anti-malarials.
(§2) All test compounds are solubilized in DMSO and diluted 400-fold (to rule out a DMSO effect) in culture medium with plasma for a starting concentration of at least 12,500 ng/ml. Drugs are subsequently diluted fivefold using the Cetus Pro/Pette™ system utilizing a range of concentrations from 0.8 ng/ml to 12,500 ng/ml. Fifty percent inhibitory concentrations are reported in ng/ml.
(§3) Table 1 summarizes differences in the susceptibility profiles of the two control P. falciparum clones (Oduola, A. M. J., N. F. Weatherly, J. H. Bowdre, R. E. Desjardins, Thirty-second Annual Meeting, American Society of Tropical Medicine and Hygiene, San Antonio, Tex., Dec. 4-8, 1983) and provides results of testing. The W-2 Indochina P. falciparum clone is resistant to chloroquine, pyrimethamine and sulfadoxine but […]. The D-6 African P. falciparum clone is susceptible to chloroquine, pyrimethamine and sulfadoxine but […].

P. falciparum = experiment: in vitro testing against P. falciparum (two strains together / assay medium); assay type: cell-based
Text: as §1, with “Except for the contribution from the 10% normal pooled human plasma and added 10^-10 M (0.014 ng/ml) PABA, the culture medium is folate-free. The trace amount of PABA insures exponential growth of the sulfonamide-susceptible parasite clone without antagonizing the activity of antifol anti-malarials.” left out

[2] = test system: D-6 African P. falciparum clone; experiment: in vitro testing against P. falciparum, D-6 African clone; assay type: cell-based
Text: as §1, §2, §3

[3] = test system: D-6 African P. falciparum clone; settings: D-6 African clone; cited from earlier work
[4] = test system: W-2 Indochina P. falciparum clone; settings: W-2 Indochina clone; cited from earlier work
[5] = Plasmodium falciparum, D-6 African clone (strain head not given; assigned), read-out: IN VITRO ED50 (fifty percent inhibitory concentration)
[6] = Plasmodium falciparum, D-6 African clone (strain head not given; assigned), read-out: IN VITRO ED50 (fifty percent inhibitory concentration), × 10^-9 M

Compound	IC50 [2, 5]	IC50 [2, 6]	susceptibility of the clone [3]	susceptibility of the clone [4]	also measured
C[C@@]12CC[C@H]3CCC[C@H]4CC(=O)O[C@H](O1)[C@@]34OO2 (relative stereo) [Compound 1, (±)-13,14-desmethylartemisinin]	21.1 ng/mL	0.083 µM	–	–	potency relative to chloroquine ([1]; W-2 Indochina strain): about three times as potent as the classical antimalarial agent chloroquine; activity relative to the natural product Qinghaosu ([1]; W-2 Indochina strain, fraction as active as Qinghaosu): approximately 1/2; antimalarial activity (in words) (P. falciparum; data of Table 1): highly active antimalarial agent; antimalarial potency (P. falciparum; varies with strain, versus the other five compounds): still in the nanogram range
CCO[C@H]1O[C@@H]2O[C@@]3(C)CC[C@H]4[C@H](C)CC[C@@H]([C@H]1C)[C@@]24OO3 [Arteether]	–	–	–	–	IN VITRO ED50 (fifty percent inhibitory concentration) ([1]; W-2 Indochina clone (strain head not given; assigned)): 1.23 ng/mL; IN VITRO ED50 (fifty percent inhibitory concentration) ([2]; D-6 African clone (strain head not given; assigned)): 1.87 ng/mL; IC50 ([2]; D-6 African clone (strain head not given; assigned), read-out: IN VITRO ED50 (fifty percent inhibitory concentration), × 10^-9 M): 0.006 µM
CCN(CC)CCCC(C)Nc1ccnc2cc(Cl)ccc12 (stereo not drawn) [Chloroquine]	–	–	susceptible	resistant	IC50 ([1]; read-out: IN VITRO ED50 (fifty percent inhibitory concentration), ng/ml): 26.8 ng/mL; IC50 ([1]; read-out: IN VITRO ED50 (fifty percent inhibitory concentration), × 10^-9 M): 0.0521 µM; IC50 ([2]; Plasmodium falciparum, read-out: IN VITRO ED50 (fifty percent inhibitory concentration), ng/ml): 5.91 ng/mL; IC50 ([2]; Plasmodium falciparum, read-out: IN VITRO ED50 (fifty percent inhibitory concentration), × 10^-9 M): 0.0115 µM
C[C@@H]1CC[C@H]2[C@@H](C)C(O)O[C@@H]3O[C@@]4(C)CC[C@@H]1[C@]32OO4 (stereo partly drawn) [Dihydro-quinghaosu]	0.47 ng/mL	0.00168 µM	–	–	–
OC(c1cc(C(F)(F)F)nc2c(C(F)(F)F)cccc12)C1CCCCN1 (stereo not drawn) [Mefloquine]	22.2 ng/mL	0.0537 µM	resistant	susceptible	–
C[C@@H]1CC[C@H]2[C@@H](C)C(=O)O[C@@H]3O[C@@]4(C)CC[C@@H]1[C@]32OO4 [Qinghaosu, artemisinin]	3.09 ng/mL	0.011 µM	–	–	–
CCc1nc(N)nc(N)c1-c1ccc(Cl)cc1 [pyrimethamine]	–	–	susceptible	resistant	–
COc1ncnc(NS(=O)(=O)c2ccc(N)cc2)c1OC [sulfadoxine]	–	–	susceptible	resistant	–
